ChEMBL document CHEMBL5518246, “Discovery of Small Molecule Interleukin 17A Inhibitors with Novel Binding Mode and Stoichiometry: Optimization of DNA-Encoded Chemical Library Hits to In Vivo Active Compounds” (J Med Chem, 2024)
≈ marks a conversion by molar mass, not a printed value.

Legend:
[1] = Unbound plasma clearance in Sprague-Dawley rat at 1 mg/kg, iv measured after 24 hrs; format: ADME, organism-based; conditions: in vivo
[2] = Metabolic stability in human liver microsomes assessed as unbound intrinsic clearance at 0.5 uM measured after 4 hrs; format: ADME, Microsome
[3] = Drug uptake in IL17A-induced CXCL1 secretion in C57BL/6 mouse at 10 mg/kg, iv pretreated 1 hr before IL17A challenge measured after 2 hrs; format: ADME, organism-based; conditions: in vivo, read-out: Drug uptake
[4] = Volume of distribution at steady-state in Sprague-Dawley rat at 1 mg/kg, iv measured after 24 hrs; format: ADME, organism-based; conditions: in vivo, read-out: Vdss
[5] = Half life in Sprague-Dawley rat at 1 mg/kg, iv measured after 24 hrs; format: ADME, organism-based; conditions: in vivo
[6] = Plasma clearance in Sprague-Dawley rat at 1 mg/kg, iv measured after 24 hrs; format: ADME, organism-based
[7] = Thermodynamic solubility of the compound at pH 7.4 measured after 48 hrs by UHPLC analysis; format: physicochemical; conditions: buffer, read-out: Therm_solubility
[8] = Thermodynamic solubility of the compound in FaSSIF at pH 6.5 after 48 hrs by UHPLC analysis; format: ADME; conditions: read-out: Therm_solubility
[9] = Metabolic stability in rat liver microsomes assessed as unbound intrinsic clearance; format: ADME, Microsome
[10] = Unbound plasma clearance in iv dosed CD-1 mouse measured after 24 hrs; format: ADME, organism-based; conditions: in vivo
[11] = Oral bioavailability in mouse at 1 mg/kg; format: ADME, organism-based; conditions: in vivo
[12] = Plasma clearance in iv dosed CD-1 mouse measured after 24 hrs; format: ADME, organism-based
[13] = Oral bioavailability in mouse at 10 mg/kg; format: ADME, organism-based; conditions: in vivo

SMILES | CL free [1] [mL/min/kg] | CL free [2] [mL/min/kg] | concentration at 1 h [3] [ng/mL] | Vd [4] [L/kg] | half-life [5] [h] | clearance [6] [mL/min/kg] | solubility thermodynamic at 48 h [7] [µM] | solubility thermodynamic at 48 h [8] [µg/mL] | CL free [9] [mL/min/kg] | CL free [10] [mL/min/kg] | bioavailability [11] [%] | clearance [12] [mL/min/kg] | bioavailability [13] [%]
C[C@H](NC(=O)[C@]1(NC(=O)c2cc(Cl)c(Cl)[nH]2)CO[C@H](c2ccc(F)cc2)C1)c1ncc2c(n1)CN(C1CCN(C)CC1)C2 | 137 | < 36.7 | 139 | 6.4 | 3.5 | 21.7 | 510 (≈ 322 µg/mL) | – | – | – | – | – | –
C[C@H](NC(=O)[C@]1(NC(=O)c2cc(Cl)c[nH]2)CO[C@H](c2ccccc2)C1)c1ncc2c(n1)CN(C1CCN(C)CC1)C2 | 48.3 | < 35 | 68 | 5.9 | 3.3 | 21.7 | 120 (≈ 69.4 µg/mL) | 630 (≈ 1090 µM) | < 60 | – | – | – | –
COCc1ccc([C@@H]2C[C@](NC(=O)c3cc(Cl)c(Cl)[nH]3)(C(=O)N[C@@H](C)c3ncc4c(n3)CN(C3CCN(C)CC3)C4)CO2)cc1 | 250 | < 31.7 | 85 | 3.2 | 1.5 | 33.3 | 60 (≈ 39.4 µg/mL) | – | < 53.3 | – | – | – | –
C[C@H](NC(=O)[C@H](CCc1ccccc1)NC(=O)c1cc(Cl)c(Cl)[nH]1)c1cn2c(=O)n(C)cc(F)c2n1 | – | 163 | – | – | – | – | 4.5 (≈ 2.4 µg/mL) | – | – | 4830 | 1.6 | 45 | –
C[C@H](NC(=O)[C@]1(NC(=O)c2cc(Cl)c(Cl)[nH]2)CO[C@H](c2ccccc2)C1)c1ncc2c(n1)CN(C1CCN(C)CC1)C2 | 102 | < 45 | 108 | 5 | 3.6 | 18.3 | > 1000 | 460 (≈ 751 µM) | < 76.7 | – | – | – | –
C[C@H](NC(=O)[C@]1(NC(=O)c2cc(Cl)c(Cl)[nH]2)CO[C@H](c2ccccc2)C1)c1cn2c(=O)n(C)cc(F)c2n1 | – | 61.7 | – | – | – | – | 0.82 (≈ 0.46 µg/mL) | – | – | 1830 | – | 33.3 | 22
C[C@H](NC(=O)[C@]1(NC(=O)c2cc(Cl)c(Cl)[nH]2)CO[C@H](c2ccccc2)C1)c1ncc2c(n1)COC2 | 1430 | 132 | 190 | 1.4 | 0.47 | 46.7 | 17 (≈ 8.78 µg/mL) | 16 (≈ 31 µM) | 1080 | – | – | – | –
O=C(N[C@@H](CCc1ccccc1)C(=O)NCc1ncc2c(n1)COC2)c1cc(Cl)c(Cl)[nH]1 | – | 183 | – | – | – | – | 8 (≈ 3.79 µg/mL) | – | – | – | – | – | –
COCc1cccc([C@@H]2C[C@](NC(=O)c3cc(Cl)c(Cl)[nH]3)(C(=O)N[C@@H](C)c3ncc4c(n3)CN(C3CCN(C)CC3)C4)CO2)c1 | – | < 35 | – | – | – | – | 660 (≈ 433 µg/mL) | – | – | – | – | – | –
C[C@H](NC(=O)[C@]1(NC(=O)c2cc(Cl)c(Cl)[nH]2)CO[C@H](c2ccccc2)C1)c1ncc2c(n1)CN(C)C2 | – | 88.3 | – | – | – | – | 190 (≈ 101 µg/mL) | – | – | – | – | – | –
O=C(N[C@@H](CCc1ccccc1)C(=O)NCc1ncccn1)c1cc(Cl)c(Cl)[nH]1 | – | 46.7 | – | – | – | – | 25 (≈ 10.8 µg/mL) | – | – | – | – | – | –
